This is an account of results in ChEMBL document CHEMBL1157539, “Thousands of chemical starting points for antimalarial lead identification” (Nature, 2010).

The test system of this assay is Plasmodium falciparum. The assay can be described thus: GSK_TCMDC: Inhibition of Plasmodium falciparum 3D7 in whole erythrocytes, using parasite LDH activity as an index of growth. Conditions: Plasmodium falciparum, 3D7. The class given is functional, organism-based.
`COc1ccc2c(N/N=C/c3cccc([N+](=O)[O-])c3)ccnc2c1` registered an XC50 of 0.846 µM.

For `CCN1CCC(N(Cc2ccc(-c3ccc(C(F)(F)F)cc3)cc2)C(=O)Cn2c(CCc3cccc(F)c3F)cc(=O)c3ccc(OCc4ccccc4)cc32)CC1`, the XC50 worked out at 0.368 µM.

In turn, `CN1CCC(N(Cc2ccc(-c3ccc(C(F)(F)F)cc3)nc2)C(=O)Cn2c(CCc3cccc(F)c3F)cc(=O)c3ccccc32)CC1` returned an XC50 of 1.1 µM.

With `CC(C)(C)NCc1cc(Nc2ccnc3cc(Cl)ccc23)ccc1F`, the XC50 amounted to 0.0303 µM.

Take `O=C(Nc1ccccc1)Nc1cccc(-c2nn3c(OCC4CCCCN4)cccc3c2-c2ccncc2)c1` (stereo not given): the XC50 was 0.858 µM.

Take `Cc1cccc2nc(-c3cccc(-c4ccc(NC(=O)NC5CC5c5ccccc5)cc4)c3)[nH]c12` (stereo not given): the XC50 was 0.719 µM.

Consider `O=c1[nH]ccc2nc(N[C@@H]3CCNC3)nc(Nc3cc(Cl)cc(Cl)c3)c12`, for which the XC50 amounted to 0.738 µM.

In turn, `COc1ccc(N2CCN(CCCCNC(=O)c3ccc(NC(=O)c4cc(C(F)(F)F)cc(C(F)(F)F)c4)cc3)CC2)c(OC)c1` displayed an XC50 of 0.153 µM.

`COc1ccc(CN2CCC(Oc3cccc(NC(=O)c4ccc(C(F)(F)F)cc4)c3)CC2)cc1` had an XC50 of 0.743 µM.

Compound `Cc1[nH]c(C)c(-c2cc3ccccc3o2)c(=O)c1Cl` yielded an XC50 of 1.72 µM.

On to `CCCC1N=C(N)N=C(N)N1c1ccc(C)c(C)c1` (stereo not given), for which the XC50 was 0.0736 µM.

`Cc1ccc(N(CCC(=N)N)Cc2ccccc2)cc1` returned an XC50 of 0.657 µM.

With `COc1cc(C2CCN(CCCCNC(=O)c3ccc(NC(=O)c4cc(C(F)(F)F)cc(C(F)(F)F)c4)cc3)CC2)ccc1OC(C)C`, the XC50 was found to be 0.154 µM.

The compound `O=C(O)C1Cc2c([nH]c3ccccc23)C(c2ccc(Cl)cc2Cl)N1` (stereo not given) came in with an XC50 of 0.954 µM.

On to `COc1cccc(CNC(=O)c2ccnc(-c3cccc(CN(C)C4CCN(C)CC4)c3)c2)c1`, for which the XC50 came out at 0.834 µM.

`COc1ccc(Nc2ccnc3cc(-c4ccccn4)ccc23)cc1OC` gave an XC50 of 0.0318 µM.

With `CC(C)(C)c1ccc(CN2CCC(CNC(=O)c3cc(-c4cccc(F)c4)cs3)C2)cc1` (stereo not given), the XC50 turned out to be 0.898 µM.

For `COc1ccc2ncc(F)c([C@H](O)CN3CCC(NCc4ccc5c(c4)NC(=O)CO5)CC3)c2c1`, the XC50 turned out to be 0.172 µM.

Compound `Cc1cccn2c(=O)c3cc(C(=O)NCc4cccnc4)c(=N)n(CCc4ccccc4)c3nc12` yielded an XC50 of 0.714 µM.

With `Cc1cc(-c2ccc3c(c2)CCN(CCC2CCC(NC(=O)/C=C/c4cccc(Cl)c4)CC2)CC3)on1` (stereo not given), the XC50 came out at 0.589 µM.

`O=C(NCC1CCC(C(=O)NCCc2ccc(Cl)c(Cl)c2)CC1)c1ccc(O)c(-c2ccc(Cl)c(Cl)c2)c1` (stereo not given) came in with an XC50 of 0.895 µM.

`N=C(N)NN=C1C=Cc2cccc3cccc1c23`: the XC50 stood at 0.609 µM.

`O=C(/C=C/c1ccc(Cl)cc1)NCCCCCN1CCCC(C(=O)Nc2cccc(Cl)c2)C1` (stereo not given): the XC50 was found to be 0.208 µM.

`c1ccc(CCNCc2ccc(-c3ccc(CNC4CCN(Cc5ccccc5)CC4)cc3)nc2)cc1` showed an XC50 of 0.446 µM.

As for `CCCCCCN1CCC(NCc2ccc(OCCN3CCCC3)cc2)CC1`, the XC50 was 0.719 µM.

On to `COc1ccc2[nH]ccc(=NN=Cc3ccc(Cl)cc3)c2c1`, for which the XC50 is 0.211 µM.

As to `COc1ccc(-c2ccc(NC(=O)c3cccc(Cl)c3)cc2)cc1CN1CCN(C)CC1`, the XC50 was determined as 0.951 µM.

`COc1ccc(Cl)cc1NC(=O)Nc1ccnc2ccccc12` registered an XC50 of 0.675 µM.

The compound `COc1cc(OC)cc(-c2nn(-c3ccc([N+](=O)[O-])cc3C#N)c(=S)n2CC2CCCO2)c1` (stereo not given) showed an XC50 of 0.852 µM.

In the case of `O=C(Nc1ccccc1)N1CCOC(CCN2CCC(F)(F)CC2)(c2ccc(Cl)c(Cl)c2)C1` (stereo not given), the XC50 worked out at 0.185 µM.

`COc1cc2c(cc1CCNCCCCNCCc1cc3c(cc1OC)CCCC3)CCCC2` yielded an XC50 of 0.996 µM.

The compound `O=C(Nc1ccc2[nH]c(-c3ccc4nc(NC(=O)C5CCCCC5)sc4c3)nc2c1)C1CCCCC1` gave an XC50 of 0.612 µM.

Take `COc1cc(CNC[C@@H](O)[C@H](Cc2ccccc2)NC(=O)c2cc(OC(C)C)cc(N3CCCCS3(=O)=O)c2)cc(OC)c1`: the XC50 came out at 0.59 µM.

In turn, `O=C(Nc1cccc(-c2ccc(-c3nc4cc(C(F)(F)F)ccc4[nH]3)cc2)c1)Nc1ccc(Cl)c(Cl)c1` returned an XC50 of 0.889 µM.

Turning to `Cc1cccc(C)c1N1CCN(C2CCC(NC(=O)/C=C/c3ccccc3)CC2)CC1` (stereo not given), the XC50 came out at 1.18 µM.

The compound `CCCN(CCC)c1nn2c(=O)c(C(=O)N3CCN(Cc4ccccc4)CC3)cnc2s1` displayed an XC50 of 0.999 µM.

Take `Cn1ncc2c3c(CCN4CCC(NCc5ccc6c(c5)NC(=O)CO6)CC4)c(Cl)cnc3ccc21`: the XC50 is 0.488 µM.

In the case of `N=C(N)NN=Cc1c2ccccc2c(Cl)c2c(Cl)cccc12`, the XC50 amounted to 0.878 µM.

With `COc1ccc(OCC(=O)Nc2nc(-c3ccc(OC)cc3)c(C)s2)cc1`, the XC50 was 1.95 µM.

Consider `COc1ccc(C(=O)CCC(=O)N(Cc2ccc(-c3ccc(CNCCc4ccc(S(C)(=O)=O)cc4)cn3)cc2)C2CC3CCC2C3)cc1F` (stereo not given), for which the XC50 amounted to 0.927 µM.

Compound `CCOC(=O)N1CCN(CCCCCNc2cc(C)nc(NC(=N)Nc3ccc(Cl)cc3)n2)CC1` had an XC50 of 0.149 µM.

`CNC(=O)Cc1ccc(C(=O)Nc2cccc(-c3cccc(-c4nc5cc(C(F)(F)F)ccc5[nH]4)c3)c2)cc1`: the XC50 was found to be 0.44 µM.

Turning to `OC(CNC1CCCCC1)c1ccc(Cl)c(Cl)c1` (stereo not given), the XC50 came to 0.698 µM.

Consider `COc1ccc2nccc([C@@H](O)CN3CCC(NC(=O)/C=C/c4c[nH]c5c(C)cccc45)CC3)c2c1`, for which the XC50 was determined as 0.135 µM.

As to `Cc1[nH]c2cc(F)ccc2c1C1=CCN(CCCCC2(C)C(=O)Nc3ccccc32)CC1` (stereo not given), the XC50 was 0.292 µM.

`COc1ccc(C2CCN(CCN3CCC(NC(=O)c4ccc(-c5cccc(C(F)(F)F)c5C(F)(F)F)cc4)CC3)CC2)c(OC)c1` displayed an XC50 of 0.419 µM.

`O=C(Nc1ccc(OC2CCN(Cc3ccsc3)C2)c(Cl)c1)c1ccc(F)cc1` (stereo not given) displayed an XC50 of 0.943 µM.

Compound `COc1cccc2sc(Nc3nc(-c4ccccn4)cs3)nc12` had an XC50 of 0.805 µM.

For the compound `CCN(CCO)CCc1cccc(Nc2nccc(-c3c(-c4ccc(NC(=O)C(C)(C)C)cc4)nn4ccccc34)n2)c1`, the XC50 came out at 0.714 µM.

On to `COc1cc(N)c(Cl)cc1C(=O)NCC1CCN(c2nc(C)cc(C)n2)CC1`, for which the XC50 came to 0.509 µM.

Compound `COc1ccc(-n2nc(C)c3c2NC(=O)CC3c2ccccc2OCc2ccccc2F)cc1` (stereo not given) came in with an XC50 of 0.901 µM.

For `O=C(Nc1cc(Cl)ccc1O)c1ccc(Oc2ccc(C(=O)Nc3cc(Cl)ccc3O)cc2)cc1`, the XC50 was 0.92 µM.

`COc1ccccc1Cn1ccnc1SCC(=O)Nc1cc(C(F)(F)F)ccc1Cl`: the XC50 is 0.0999 µM.

For the compound `CC[C@H]1CN2CC[C@H]1C[C@H]2[C@H](O)c1cc(-c2cccc(C)c2)nc2ccc(OC)cc12`, the XC50 worked out at 0.163 µM.

Take `C=Cc1cc(OC)c2c(c1)c(=O)oc1c2cc(OC)c2c(O)ccc([C@H]3O[C@H]([C@H](C)O)[C@H](O)[C@H]3O)c21`: the XC50 is 0.794 µM.

Take `Cc1cc(=NN=Cc2ccccc2Cl)c2cc(C(F)(F)F)ccc2[nH]1`: the XC50 worked out at 0.858 µM.

As for `FC(F)(F)c1cc(Nc2ncnc3ccc(Br)cc23)ccc1OCc1ccccc1`, the XC50 was determined as 1.08 µM.

Take `Cc1[nH]c(C)c(-c2cccc(-c3ccc(OC(F)(F)F)cc3)c2)c(=O)c1Br`: the XC50 is 0.41 µM.

In turn, `O=C(Nc1cccc(OCCN2CCCC2)c1)Nc1ccc(Cl)c(Cl)c1` yielded an XC50 of 0.775 µM.

The compound `COc1ccc(CCNCC(O)COc2nccc3c(S(=O)(=O)N4CCCNCC4)cccc23)cc1OC` (stereo not given) came in with an XC50 of 0.269 µM.

For the compound `COc1ccc(C(=O)Nc2nonc2-c2ccc(OC)c(OC)c2)cc1Cl`, the XC50 came to 0.675 µM.

In turn, `O=c1cnc2ccc(F)cc2n1CCN1CCC(NCc2cc(-c3ccccc3)cs2)CC1` showed an XC50 of 0.863 µM.

As for `CCc1cn2c3c(cc(C(=O)N[C@@H](Cc4ccccc4)[C@H](O)CNC(C)(C)c4cccc(OC)c4)cc13)N(C)S(=O)(=O)C2`, the XC50 amounted to 0.0617 µM.

On to `c1cncc(-c2cc(N3CCc4ccccc4C3)nc(-c3ccncc3)n2)c1`, for which the XC50 was 0.0409 µM.

In the case of `Fc1ccc2c(NN=Cc3ccccc3)ccnc2c1`, the XC50 was determined as 0.739 µM.

`COc1cc(C(=O)Nc2cccc(-c3cn4ccc(C)cc4n3)c2)cc(OC)c1OC` gave an XC50 of 0.761 µM.

Regarding `N=C(N)NN=Cc1cc2ccccc2c2ccccc12`, the XC50 came to 0.18 µM.

For `CCOc1cc(C)ccc1N1CCN(CCN2CCC(NC(=O)c3ccc(-c4ccc(C#N)cc4)cc3)CC2)CC1`, the XC50 is 1.43 µM.

In the case of `CCOC(=O)c1ccc(N2CCN(c3cc(C)ccc3C)CC2)c(NC(=O)Nc2ccc(Cl)c(Cl)c2)c1`, the XC50 amounted to 0.712 µM.

The compound `c1ccc2[nH]c(-c3ccc(-c4ccc(CNCC5CCCO5)cc4)s3)nc2c1` (stereo not given) came in with an XC50 of 0.869 µM.

`COC(=O)Nc1ccc(-c2ccc(C(=O)NC3CCN(C[C@H](O)c4ccnc5ccc(OC)cc45)CC3)cc2)c(C)c1`: the XC50 is 0.685 µM.

In the case of `Brc1ccsc1-c1nc(NCCC(c2ccccc2)c2ccccc2)no1`, the XC50 stood at 1.08 µM.

In turn, `Cn1nccc1C(=O)NCCNCc1cccc(-c2ccc(-c3nc4cc(C(F)(F)F)ccc4[nH]3)cc2)c1` displayed an XC50 of 0.122 µM.

In the case of `Cc1cc(=NN=Cc2ccccc2)c2cc(F)ccc2[nH]1`, the XC50 was 0.579 µM.

`COCCNCc1cccc(-c2cccc(CN(C(=O)Nc3ccccc3)C3CCN(Cc4ccccc4)CC3)c2)c1` came in with an XC50 of 0.126 µM.

In turn, `Cc1cc(N(C)C2CCN(C)C2)nc(Nc2ccccc2Cl)n1` (stereo not given) showed an XC50 of 0.754 µM.

As to `CCCCCN1CCCC(CNS(=O)(=O)c2cccc(C(=O)Nc3ccc(C(F)(F)F)cc3)c2)C1` (stereo not given), the XC50 stood at 0.829 µM.

`CCCNCc1ccc(-c2ccc(CN(CCOC)C(=O)c3cscn3)cc2)nc1` showed an XC50 of 0.178 µM.

In the case of `O=C(/C=C/c1ccc(Cl)c(Cl)c1)NCCCCCN1CCC(CCNC(=O)Cc2ccc(Cl)cc2)CC1`, the XC50 is 1.16 µM.

The compound `CN(c1ccc(NC(=O)Nc2cc(C(C)(C)C)on2)cc1)c1ccnc(NCCN2CCOCC2)n1` displayed an XC50 of 1.12 µM.

The compound `Cc1ccc(NC(=O)NC2CCN(c3ccnc4cc(Cl)ccc34)CC2)cc1` had an XC50 of 0.315 µM.

In turn, `N=C(N)NCCCN(Cc1ccccc1)c1ccccc1` showed an XC50 of 0.579 µM.

Compound `OCc1ccc(-c2cncc(Nc3cccc(Cl)c3)c2)cc1` displayed an XC50 of 0.0743 µM.

For the compound `Cc1nc(N)nc(N)c1Oc1cccc(Cl)c1`, the XC50 stood at 0.871 µM.

Regarding `COC(=O)c1cccc(NC(=O)NC2CCN(c3ccnc(Nc4cc(OC)c(OC)c(OC)c4)n3)C2)c1` (stereo not given), the XC50 turned out to be 0.512 µM.
